Measurements from ChEMBL document CHEMBL5316287 (J Med Chem, 2023).

Tests used:
[1] = Toxicity in castrated NSG mouse xenografted with human VCaP cells assessed as mortality at 0.3 to 3 mg/kg,po qd for 33 days consecutively; type: organism-based; conditions: in vivo, 792 h, dose 0.3-3 mg/kg, time 33 day
[2] = molecular target: Histone acetyltransferase p300 (Homo sapiens, UniProt Q09472); assay: Inhibition of EP300 in human LK2 cells assessed as reduction in intracellular H3K27 acetylation incubated for 3 hrs by chemiluminescence based ELISA; type: cell-based
[3] = 1-Octanol/PBS partition coefficient, logD of the compound at pH 7.4 incubated for 30 mins by shake flask technique based HPLC-LC/MS analysis; type: physicochemical
[4] = Metabolic stability in mouse liver microsomes assessed as intrinsic clearance at 1 uM; type: ADME, Microsome
[5] = Metabolic stability in human liver microsomes assessed as intrinsic clearance at 1 uM; type: ADME, Microsome
[6] = AUC in BALB/cAnNCrlCrlj mouse at 10 mg/kg,po; type: ADME, organism-based; design: dose 10 mg/kg, route po; conditions: in vivo
[7] = Unbound AUC in BALB/cAnNCrlCrlj mouse at 10 mg/kg,po; type: ADME, organism-based; conditions: in vivo
[8] = Cmax in BALB/cAnNCrlCrlj mouse at 10 mg/kg,po; type: ADME, organism-based; design: dose 10 mg/kg, route po; conditions: in vivo
[9] = Half life in BALB/cAnNCrlCrlj mouse at 10 mg/kg,po; type: ADME, organism-based; conditions: in vivo
[10] = Oral bioavailability in BALB/cAnNCrlCrlj mouse at 10 mg/kg; type: ADME, organism-based; conditions: in vivo, po, 10 mg/kg
[11] = Volume of distribution at steady state in BALB/cAnNCrlCrlj mouse at 1 mg/kg,iv administered as DMA/Tween80/saline (1:1:8 ratio) solution; type: ADME, organism-based; conditions: in vivo, read-out: Vdss
[12] = Unbound clearance in BALB/cAnNCrlCrlj mouse at 1 mg/kg,iv administered as DMA/Tween80/saline (1:1:8 ratio) solution; type: ADME, organism-based; conditions: in vivo
CREB-binding protein = CREB-binding protein (Homo sapiens, UniProt Q92793); assay: Inhibition of CBP (unknown origin) biotinylated H4 (1 to 25)-GSGSK peptide as substrate incubated for 1 hr in presence of acetyl-coA by AlphaLISA assay
[13] = molecular target: Histone acetyltransferase KAT5 (Homo sapiens, UniProt Q92993); assay: Inhibition of TIP60 (unknown origin) biotinylated H4 (1 to 25)-GSGSK peptide as substrate incubated for 1 hr in presence of acetyl-coA by AlphaLISA assay
[14] = molecular target: Histone acetyltransferase KAT7 (Homo sapiens, UniProt O95251); assay: Inhibition of MYST2 (unknown origin) biotinylated H4 (1 to 25)-GSGSK peptide as substrate incubated for 1 hr in presence of acetyl-coA by AlphaLISA assay
[15] = molecular target: Histone acetyltransferase KAT6B (Homo sapiens, UniProt Q8WYB5); assay: Inhibition of MYST4 (unknown origin) biotinylated H4 (1 to 25)-GSGSK peptide as substrate incubated for 1 hr in presence of acetyl-coA by AlphaLISA assay
[16] = molecular target: Histone acetyltransferase KAT2B (Homo sapiens, UniProt Q92831); assay: Inhibition of PCAF (unknown origin) biotinylated H3 (1 to […])-GGK peptide as substrate incubated for 1 hr in presence of acetyl-coA by AlphaLISA assay
[17] = molecular target: Histone acetyltransferase KAT2A (Homo sapiens, UniProt Q92830); assay: Inhibition of GCN5 (unknown origin) biotinylated H3 (1 to […])-GGK peptide as substrate incubated for 1 hr in presence of acetyl-coA by AlphaLISA assay
VCaP [18] = assay: Antiproliferative activity against AR-positive human VCaP cells assessed as cell growth inhibition incubated for 7 days by CellTiter-Glo assay; type: functional; conditions: 168 h, time 7 day
CWR22R = assay: Antiproliferative activity against AR-positive human 22Rv1 cells assessed as cell growth inhibition incubated for 7 days by CellTiter-Glo assay; type: functional; conditions: 22Rv1, 168 h, time 7 day
LNCaP [19] = assay: Antiproliferative activity against AR-positive human LNCaP cells assessed as cell growth inhibition incubated for 7 days by CellTiter-Glo assay; type: functional; conditions: 168 h, time 7 day
PC-3 = assay: Antiproliferative activity against AR-negative human PC-3 cells assessed as cell growth inhibition incubated for 7 days by CellTiter-Glo assay; type: functional; conditions: PC-3, 168 h, time 7 day
[20] = Toxicity in castrated NSG mouse xenografted with human VCaP cells assessed as body weight loss at 0.3 to 3 mg/kg,po qd for 33 days consecutively; type: organism-based; conditions: in vivo, 792 h, dose 0.3-3 mg/kg, time 33 day
VCaP [21] = assay: Inhibition of H3K18 acetylation in AR-positive human VCaP cells at 3.9 to 1000 nM incubated for 72 hrs by Western blot analysis; type: functional, cell-based; conditions: dose 3.9-1000 nM
VCaP [22] = assay: Inhibition of H3K27 acetylation in AR-positive human VCaP cells at 3.9 to 1000 nM incubated for 72 hrs by Western blot analysis; type: functional, cell-based; conditions: dose 3.9-1000 nM
VCaP [23] = assay: Downregulation of PSA expression in AR-positive human VCaP cells at 3.9 to 1000 nM incubated for 72 hrs by Western blot analysis; type: functional, cell-based; conditions: dose 3.9-1000 nM
LNCaP [24] = assay: Inhibition of H3K18 acetylation in AR-positive human LNCaP cells at 3.9 to 1000 nM incubated for 72 hrs by Western blot analysis; type: functional, cell-based; conditions: dose 3.9-1000 nM
LNCaP [25] = assay: Inhibition of H3K27 acetylation in AR-positive human LNCaP cells at 3.9 to 1000 nM incubated for 72 hrs by Western blot analysis; type: functional, cell-based; conditions: dose 3.9-1000 nM
LNCaP [26] = assay: Downregulation of PSA expression in AR-positive human LNCaP cells at 3.9 to 1000 nM incubated for 72 hrs by Western blot analysis; type: functional, cell-based; conditions: dose 3.9-1000 nM
VCaP [27] = assay: Antitumor activity against human VCaP cells xenografted in castrated NSG mouse assessed as tumor growth inhibition at 0.3 mg/kg,po qd for 33 days consecutively; type: functional; conditions: 792 h, time 33 day, read-out: TGI
VCaP [28] = assay: Antitumor activity against human VCaP cells xenografted in castrated NSG mouse assessed as tumor growth inhibition at 1 mg/kg,po qd for 33 days consecutively; type: functional; conditions: 792 h, time 33 day, read-out: TGI
VCaP [29] = assay: Antitumor activity against human VCaP cells xenografted in castrated NSG mouse assessed as tumor growth inhibition at 3 mg/kg,po qd for 33 days consecutively; type: functional; conditions: 792 h, time 33 day, read-out: TGI
VCaP [30] = assay: Antitumor activity against human VCaP cells xenografted in castrated NSG mouse assessed as decrease in plasma PSA expression at 0.3 to 3 mg/kg,po qd for 33 days consecutively and measured after 6 hrs by ELISA; type: functional, organism-based; conditions: dose 0.3-3 mg/kg, time 33.0 day

Histone acetyltransferase KAT6B, sequence (Q8WYB5 whole entry): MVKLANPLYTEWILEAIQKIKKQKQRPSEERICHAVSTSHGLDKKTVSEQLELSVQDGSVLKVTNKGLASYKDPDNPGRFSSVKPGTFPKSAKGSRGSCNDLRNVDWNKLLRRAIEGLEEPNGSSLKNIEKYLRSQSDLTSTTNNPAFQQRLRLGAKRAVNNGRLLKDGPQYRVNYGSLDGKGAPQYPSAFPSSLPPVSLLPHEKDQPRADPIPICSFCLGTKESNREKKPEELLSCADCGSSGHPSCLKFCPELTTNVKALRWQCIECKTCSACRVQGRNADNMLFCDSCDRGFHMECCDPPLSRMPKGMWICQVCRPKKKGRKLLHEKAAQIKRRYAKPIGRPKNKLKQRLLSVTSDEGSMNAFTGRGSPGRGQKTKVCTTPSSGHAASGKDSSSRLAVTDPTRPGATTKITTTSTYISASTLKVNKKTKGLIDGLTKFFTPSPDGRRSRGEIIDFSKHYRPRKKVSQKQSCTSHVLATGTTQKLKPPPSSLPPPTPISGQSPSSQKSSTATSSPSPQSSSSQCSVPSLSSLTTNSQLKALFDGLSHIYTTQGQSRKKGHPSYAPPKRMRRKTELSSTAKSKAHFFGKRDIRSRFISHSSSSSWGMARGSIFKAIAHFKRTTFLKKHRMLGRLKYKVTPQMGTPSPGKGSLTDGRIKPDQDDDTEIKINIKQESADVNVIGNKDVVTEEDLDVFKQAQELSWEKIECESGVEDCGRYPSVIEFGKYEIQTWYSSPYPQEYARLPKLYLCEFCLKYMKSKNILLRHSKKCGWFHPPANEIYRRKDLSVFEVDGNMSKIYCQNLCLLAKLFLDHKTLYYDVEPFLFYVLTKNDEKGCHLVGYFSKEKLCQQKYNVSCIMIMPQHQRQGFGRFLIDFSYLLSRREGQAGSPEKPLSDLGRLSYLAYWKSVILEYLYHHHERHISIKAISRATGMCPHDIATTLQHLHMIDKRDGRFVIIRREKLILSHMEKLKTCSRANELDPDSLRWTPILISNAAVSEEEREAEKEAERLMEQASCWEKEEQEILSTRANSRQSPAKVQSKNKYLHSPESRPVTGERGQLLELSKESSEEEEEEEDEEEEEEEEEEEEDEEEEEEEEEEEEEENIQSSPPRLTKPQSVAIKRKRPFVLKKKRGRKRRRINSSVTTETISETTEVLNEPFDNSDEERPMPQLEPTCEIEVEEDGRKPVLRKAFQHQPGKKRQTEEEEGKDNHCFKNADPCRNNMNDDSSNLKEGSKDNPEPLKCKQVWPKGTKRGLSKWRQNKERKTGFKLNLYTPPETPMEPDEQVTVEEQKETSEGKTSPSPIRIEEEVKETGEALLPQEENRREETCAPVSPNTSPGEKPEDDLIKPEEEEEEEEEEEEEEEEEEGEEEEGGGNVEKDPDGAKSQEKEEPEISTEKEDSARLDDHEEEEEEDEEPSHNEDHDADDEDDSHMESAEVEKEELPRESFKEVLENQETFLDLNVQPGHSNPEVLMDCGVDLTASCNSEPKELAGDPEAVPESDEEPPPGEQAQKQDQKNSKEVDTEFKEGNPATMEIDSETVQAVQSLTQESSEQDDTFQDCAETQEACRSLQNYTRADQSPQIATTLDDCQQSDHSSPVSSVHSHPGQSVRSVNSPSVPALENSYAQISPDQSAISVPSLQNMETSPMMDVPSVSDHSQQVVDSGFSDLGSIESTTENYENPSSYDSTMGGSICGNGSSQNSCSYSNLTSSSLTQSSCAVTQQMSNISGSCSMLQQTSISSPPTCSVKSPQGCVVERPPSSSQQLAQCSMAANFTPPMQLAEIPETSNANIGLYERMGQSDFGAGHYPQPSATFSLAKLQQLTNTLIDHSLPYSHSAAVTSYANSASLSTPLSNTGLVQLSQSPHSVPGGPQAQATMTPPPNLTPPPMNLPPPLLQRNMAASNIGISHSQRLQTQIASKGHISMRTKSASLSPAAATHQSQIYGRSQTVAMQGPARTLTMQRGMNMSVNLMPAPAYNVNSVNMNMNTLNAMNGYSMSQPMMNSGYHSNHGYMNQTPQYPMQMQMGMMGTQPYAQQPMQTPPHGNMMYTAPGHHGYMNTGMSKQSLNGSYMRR
Histone acetyltransferase KAT2B, sequence (Q92831 whole entry): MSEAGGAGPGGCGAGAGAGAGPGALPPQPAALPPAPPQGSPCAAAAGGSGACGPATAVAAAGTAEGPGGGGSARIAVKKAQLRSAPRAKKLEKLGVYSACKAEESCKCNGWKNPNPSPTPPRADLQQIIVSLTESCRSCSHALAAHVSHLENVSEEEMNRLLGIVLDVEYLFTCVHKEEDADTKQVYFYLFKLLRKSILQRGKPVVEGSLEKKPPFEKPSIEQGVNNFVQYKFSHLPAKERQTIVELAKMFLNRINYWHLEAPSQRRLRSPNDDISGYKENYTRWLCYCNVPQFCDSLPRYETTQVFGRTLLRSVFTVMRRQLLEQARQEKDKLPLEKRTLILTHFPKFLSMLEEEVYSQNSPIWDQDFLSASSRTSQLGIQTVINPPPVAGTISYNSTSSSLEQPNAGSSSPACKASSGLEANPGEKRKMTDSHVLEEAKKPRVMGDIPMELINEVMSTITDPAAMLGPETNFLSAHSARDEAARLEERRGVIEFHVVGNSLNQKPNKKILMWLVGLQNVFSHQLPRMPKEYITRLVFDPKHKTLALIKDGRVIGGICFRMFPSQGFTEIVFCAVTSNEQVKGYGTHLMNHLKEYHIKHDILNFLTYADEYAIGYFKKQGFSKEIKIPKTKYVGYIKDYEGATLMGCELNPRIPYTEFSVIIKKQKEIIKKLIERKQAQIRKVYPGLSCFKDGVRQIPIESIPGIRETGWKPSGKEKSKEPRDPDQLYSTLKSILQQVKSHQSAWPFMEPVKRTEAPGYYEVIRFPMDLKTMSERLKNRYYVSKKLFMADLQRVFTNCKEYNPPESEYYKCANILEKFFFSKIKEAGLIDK
Histone acetyltransferase KAT7, sequence (O95251 whole entry): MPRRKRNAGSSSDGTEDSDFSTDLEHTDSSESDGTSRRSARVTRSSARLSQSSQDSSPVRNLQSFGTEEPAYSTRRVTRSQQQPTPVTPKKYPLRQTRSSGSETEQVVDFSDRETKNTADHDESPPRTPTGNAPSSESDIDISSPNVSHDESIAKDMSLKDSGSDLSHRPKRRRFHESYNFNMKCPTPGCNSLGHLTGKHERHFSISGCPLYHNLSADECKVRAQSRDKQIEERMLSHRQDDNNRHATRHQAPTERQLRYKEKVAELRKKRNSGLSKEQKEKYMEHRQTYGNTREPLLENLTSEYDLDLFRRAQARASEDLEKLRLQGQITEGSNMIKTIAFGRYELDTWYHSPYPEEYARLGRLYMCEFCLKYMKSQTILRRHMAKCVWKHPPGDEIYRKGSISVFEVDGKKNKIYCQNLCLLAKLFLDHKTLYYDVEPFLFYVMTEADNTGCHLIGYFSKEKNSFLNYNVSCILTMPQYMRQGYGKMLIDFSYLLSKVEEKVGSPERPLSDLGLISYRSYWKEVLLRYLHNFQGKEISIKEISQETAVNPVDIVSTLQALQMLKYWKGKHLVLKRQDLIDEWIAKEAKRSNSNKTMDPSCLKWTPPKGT
Histone acetyltransferase KAT5, sequence (Q92993 whole entry): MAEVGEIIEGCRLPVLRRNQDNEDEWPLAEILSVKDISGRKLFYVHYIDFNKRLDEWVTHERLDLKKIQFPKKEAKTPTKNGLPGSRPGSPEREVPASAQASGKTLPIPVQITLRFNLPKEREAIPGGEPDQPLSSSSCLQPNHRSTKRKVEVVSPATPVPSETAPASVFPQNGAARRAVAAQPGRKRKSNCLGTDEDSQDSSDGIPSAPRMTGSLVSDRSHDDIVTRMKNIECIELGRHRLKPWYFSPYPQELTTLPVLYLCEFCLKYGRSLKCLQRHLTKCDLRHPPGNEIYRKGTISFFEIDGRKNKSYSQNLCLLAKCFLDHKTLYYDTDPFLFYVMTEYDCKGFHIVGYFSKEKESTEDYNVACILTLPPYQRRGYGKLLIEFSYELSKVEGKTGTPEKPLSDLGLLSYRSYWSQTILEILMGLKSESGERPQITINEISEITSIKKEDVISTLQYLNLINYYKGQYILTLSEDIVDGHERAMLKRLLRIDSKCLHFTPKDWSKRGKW
Histone acetyltransferase KAT2A, sequence (Q92830 whole entry): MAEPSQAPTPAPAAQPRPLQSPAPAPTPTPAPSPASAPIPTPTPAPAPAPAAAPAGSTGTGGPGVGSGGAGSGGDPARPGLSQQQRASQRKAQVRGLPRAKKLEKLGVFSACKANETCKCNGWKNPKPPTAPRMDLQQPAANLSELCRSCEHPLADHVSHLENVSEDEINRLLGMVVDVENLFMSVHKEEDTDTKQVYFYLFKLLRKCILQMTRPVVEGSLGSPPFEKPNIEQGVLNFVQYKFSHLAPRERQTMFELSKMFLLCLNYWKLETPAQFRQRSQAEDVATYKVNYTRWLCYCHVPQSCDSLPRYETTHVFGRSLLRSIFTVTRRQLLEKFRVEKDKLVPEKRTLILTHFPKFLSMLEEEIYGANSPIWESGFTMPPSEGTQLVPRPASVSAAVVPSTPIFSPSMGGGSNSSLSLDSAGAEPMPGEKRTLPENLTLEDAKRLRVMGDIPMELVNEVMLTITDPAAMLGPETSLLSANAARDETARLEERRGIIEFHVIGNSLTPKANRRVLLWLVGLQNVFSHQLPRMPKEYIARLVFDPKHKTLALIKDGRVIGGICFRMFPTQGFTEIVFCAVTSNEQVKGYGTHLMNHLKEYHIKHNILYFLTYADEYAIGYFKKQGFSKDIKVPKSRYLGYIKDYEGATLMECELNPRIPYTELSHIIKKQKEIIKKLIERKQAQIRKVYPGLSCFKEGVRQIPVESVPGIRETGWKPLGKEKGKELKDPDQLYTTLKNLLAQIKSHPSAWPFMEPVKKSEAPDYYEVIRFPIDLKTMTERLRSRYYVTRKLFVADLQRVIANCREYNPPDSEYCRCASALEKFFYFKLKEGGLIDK

COc1ccc(C2(C(=O)N3C[C@H](F)C[C@@H]3C(=O)Nc3ccc4[nH]ncc4n3)CCC(F)(F)CC2)cc1
Activity [1]: Non-Toxic
IC50 [2]: 0.054 µM
logD at 0.5 h [3]: 3
intrinsic clearance (CLint) [4]: 50 µL/min/mg
intrinsic clearance [5]: 50 µL/min/mg
AUC [6]: 130 µM·h
fAUC [7]: 5.33 µM·h
Cmax [8]: 34 µM
half-life [9]: 2.4 h
F [10]: 21%
Vd [11]: 0.14 L/kg
CL free [12]: 2.34 L/h/kg
IC50 (CREB-binding protein): 0.001 µM
IC50 [13]: > 50 µM
IC50 [14]: > 50 µM
IC50 [15]: > 50 µM
IC50 [16]: > 50 µM
IC50 [17]: > 50 µM
GI50 (VCaP [18]): 0.0006 µM
GI50 (CWR22R): 0.0065 µM
GI50 (LNCaP [19]): 0.0034 µM
GI50 (PC-3): 0.287 µM
Activity [20]: Non-Toxic
inhibition (VCaP [21]): Dose-Dependent Effect
inhibition (VCaP [22]): Dose-Dependent Effect
Activity (VCaP [23]): Dose-Dependent Effect
inhibition (LNCaP [24]): Dose-Dependent Effect
inhibition (LNCaP [25]): Dose-Dependent Effect
Activity (LNCaP [26]): Dose-Dependent Effect
inhibition in vivo at 0.3 mg/kg (VCaP [27]): 39%
inhibition in vivo at 1 mg/kg (VCaP [28]): 74%
inhibition in vivo at 3 mg/kg (VCaP [29]): 109%
Activity (VCaP [30]): Dose-Dependent Effect
